According to patent US20100292175A1, “USE OF HYDROXYFLAVAN DERIVATIVES FOR TASTE MODIFICATION” (Leibniz-Institut fur Pflanzenbiochemie, priority 2009, published 2010):

How the values were obtained:
Type in all cases: in vivo
[1] = Bitter reduction of a bitter substance solution (caffeine), panel of experts; conditions: for Bitter sensation (1-10) Sample (caffeine + substance): grading 1 [not bitter] to 10 [extremely bitter]
Source text: To quantify the reduction (i.e. the masking or reduction) of the bitter sensation in a sample, the bitterness of a solution containing 500 ppm of caffeine was compared by a panel of experts in each case with a sample which contained 500 ppm of caffeine and additionally 50 ppm or 100 ppm of a substance to be assessed (in respect of the bitter-reduction ability) (grading: 1 [not bitter] to 10 [extremely bitter]).
For the evaluation, i.e. the calculation of the reduction (in %) of the bitter sensation, the mean values of the assessments by the panel of experts of the caffeine solution and the sample, to be compared, containing caffeine and a substance to be assessed were used in each case. In this respect, 2,4-dihydroxybenzoic acid (2,4-DHB) was used as the comparison (reference) according to U.S. Pat. No. 5,643,941.

[2] = Enhancement of the sweet sensation of a sugar solution, Comparative Test 1, panel of experts; conditions: for Sweet sensation (1-10) Sample (sucrose + substance): grading 1 [not sweet] to 10 [extremely sweet]; for synergistic enhancement of the sweet taste of a sweet-tasting substance: according to our own experiments
Source text: To quantify the enhancement of the sweet sensation, the sweetness of a 5% sucrose solution was compared by a panel of experts in each case with a sample which contained 5% of sucrose as well as 50 ppm or 100 ppm of a compound of formula (I) to be used according to the invention (grading: 1 [not sweet] to 10 [extremely sweet]).
For the evaluation, i.e. the calculation of the enhancement (in %) of the sweet sensation, the mean values of the assessments by the panel of experts of the sucrose solution and the sample, to be compared, containing sucrose and a compound of formula (I) were used in each case.

[3] = Comparative Test 2: sucrose equivalence in a 5% sucrose solution, panel of experts; conditions: for Sucrose equivalence in a 5% sucrose solution, Calculation (5 + x) %: purely additive calculation; for synergy or synergistic additional effect: determined vs calculated sucrose equivalence
Experimental: (§1) The panelists were asked to test each solution of compound 2 in water against the sucrose series and to grade them according to their degree of sweetness (sucrose equivalent). It was possible to determine the inherent sweetness of compound 2 for the above-mentioned concentrations from the results provided by the panelists. In addition to the sucrose equivalence in water (i.e. without sucrose), the sucrose equivalence in a 5% sucrose solution was also determined.
It was possible to establish a clear synergistic sweetness enhancement even at a low concentration, not sweet per se, of approximately 25 ppm of compound 2 (from Example 1). From a purely calculational point of view, it was to be expected that a 5% sucrose solution (i.e. a sucrose solution which corresponds in sensory manner by definition to 5% sucrose equivalents) which contains 25 ppm or 50 ppm of compound 2 (from Example 1) produced a sweetness of approximately 5.84 or 6.45 sucrose equivalents by a purely additive effect of the inherent sweetness of compound 2 (see the determined sucrose equivalence in water). However, the sensory assessment of such a 5% sucrose solution with 25 ppm or 50 ppm of compound 2 (from Example 1) by the panelists produced an averaged sucrose equivalence of 6.8% or 8.2%. Considering the values to be expected from a purely calculational point of view, this corresponds to a synergy or a synergistic additional effect of approximately 17% or 27%.

[4] = Comparative Test 2: inherent sweetness (sucrose equivalence) in water, panel of experts
Experimental: The inherent sweetness of compound 2 from Example 1, which was dissolved in water in a pure form in different concentrations (0.0025 or 0.0050% by weight in water) was determined by a panel of experts (panelists) using a series of comparisons of different sucrose concentrations in water (0; 0.25; 0.5; 0.75; 1; 1.5; 2; 3; 4 and 5% by weight sucrose in water).
as §1

[5] = 50 ppm substance + 500 ppm caffeine vs 500 ppm caffeine solution
[6] = 50 ppm substance + 500 ppm caffeine
[7] = 50 ppm substance + 5% sucrose vs 5% sucrose solution

| Structure (SMILES) | Reduction of the bitter sensation [1, 5] [%] | Bitter sensation (1-10) Sample (caffeine + substance) [1, 6] | Enhancement of the sweet sensation [2, 7] [%] | Sweet sensation (1-10) Sample (sucrose + substance) ([2]; 50 ppm substance + 5% sucrose) | other results |
| --- | --- | --- | --- | --- | --- |
| COc1ccc(C2CCc3c(O)cc(O)cc3O2)cc1O (stereo not shown) [compound 15, 3′,5,7-trihydroxy-4′-methoxyflavan] | 15 | 3.8 ± 1.5 | 21 | 5.8 ± 1.6 |  |
| Oc1ccc(C2CCc3ccc(O)cc3O2)cc1 (stereo not shown) [compound 1, 4′,7-dihydroxyflavan] |  |  |  |  | Enhancement of the sweet sensation ([2]; 100 ppm substance + 5% sucrose vs 5% sucrose solution): 21%; Sweet sensation (1-10) Sample (sucrose + substance) ([2]; 100 ppm substance + 5% sucrose): 6.2 ± 1.5; synergistic enhancement of the sweet taste of a sweet-tasting substance [2]: particularly strong synergistic enhancement |
| COc1cc(C2CCc3c(O)cc(O)cc3O2)ccc1O (stereo not shown) [compound 16, 4′,5,7-trihydroxy-3′-methoxyflavan] | 5 | 4.1 ± 2.0 |  |  |  |
| Oc1ccc(C2CCc3c(O)cc(O)cc3O2)cc1 (stereo not shown) [compound 14, 4′,5,7-trihydroxyflavan] | 26 | 3.8 ± 1.9 |  |  |  |
| O=C(O)c1ccc(O)cc1O [2,4-DHB, 2,4-dihydroxybenzoic acid, reference compound] |  |  |  |  | Reduction of the bitter sensation ([1]; 100 ppm substance + 500 ppm caffeine vs 500 ppm caffeine solution): 3%; Bitter sensation (1-10) Sample (caffeine + substance) ([1]; 100 ppm substance + 500 ppm caffeine): 5.0 ± 1.0 |
| COc1ccc([C@@H]2CCc3ccc(O)cc3O2)cc1O [compound S-2, (2S)-3′,7-dihydroxy-4″-methoxyflavan] | 16 | 3.9 ± 1.5 | 36 | 7.8 ± 1.7 |  |
| COc1ccc(C2CCc3ccc(O)cc3O2)cc1O (racemic) [compound 2, 3′,7-dihydroxy-4′-methoxyflavan] | 27 | 3.9 ± 1.9 | 57 | 8.1 ± 1.3 | Sucrose equivalence in a 5% sucrose solution, Determination ([3]; 0.0025 % by weight (25 ppm) in 5% sucrose solution): 6.8%; Sucrose equivalence in a 5% sucrose solution, Calculation (5 + x) % ([3]; 0.0025 % by weight): 5.84%; Sucrose equivalence in a 5% sucrose solution, Determination ([3]; 0.0050 % by weight (50 ppm) in 5% sucrose solution): 8.2%; Sucrose equivalence in a 5% sucrose solution, Calculation (5 + x) % ([3]; 0.0050 % by weight): 6.45%; sweetness to be expected by a purely additive effect of the inherent sweetness ([3]; 25 ppm in 5% sucrose solution): approximately 5.84 sucrose equivalents; synergy or synergistic additional effect ([3]; 25 ppm in 5% sucrose solution): approximately 17%; sweetness to be expected by a purely additive effect of the inherent sweetness ([3]; 50 ppm in 5% sucrose solution): ~6.45 sucrose equivalents; synergy or synergistic additional effect ([3]; 50 ppm in 5% sucrose solution): ~27%; synergistic enhancement of the sweet taste of a sweet-tasting substance [2]: particularly strong synergistic enhancement; Determination of the sucrose equivalence in water (without sucrose) ([4]; 0.0025 % by weight in water): 0.84%; Determination of the sucrose equivalence in water (without sucrose) ([4]; 0.0050 % by weight in water): 1.45% |
| COc1cc(C2CCc3ccc(O)cc3O2)ccc1O (stereo not shown) [compound 3, 4′,7-dihydroxy-3″-methoxyflavan] | 15 | 4.1 ± 1.4 |  |  |  |
